What all share (assay type): functional, Homo sapiens
Parameters in all cases: concentration or dose not given beside the values

Assay [1] can be described thus: Compounds was tested for the effect of L-nucleosides of ribavirin on SEB (staphylococcal enterotoxin B)-stimulated T-cell expression of the type 1 cytokine IFN-gamma.
Assay [2] can be described thus: Compounds was tested for the effect of L-nucleosides of ribavirin on SEB (staphylococcal enterotoxin B)-stimulated T-cell expression of the type 1 cytokine TNF-alpha.
Assay [3] can be described thus: Compounds was tested for the effect of L-nucleosides of ribavirin on SEB (staphylococcal enterotoxin B)-stimulated T-cell expression of the type 1 cytokine IL-2.

From ChEMBL document CHEMBL1133712, “Monocyclic L-nucleosides with type 1 cytokine-inducing activity” (2000) come the findings set out here.

For the compound `Cl.N=C(N)c1ncn([C@H]2O[C@@H](CO)[C@H](O)[C@@H]2O)n1`, the Control in assay [1] is on record as 128%; in assay [2] it was 120%; in assay [3], 133%.

For the compound `NC(=O)c1ncn([C@H]2O[C@@H](CO)C[C@@H]2O)n1`, the figures for the Control in assay [1], in assay [2] and in assay [3] were 114%, 109% and 115%, respectively.

`NC(=O)c1ncn([C@H]2O[C@@H](CO)[C@H](O)[C@@H]2O)n1`: the values for the Control in assay [1], in assay [2] and in assay [3] were 122%, 144% and 131%, respectively.

Regarding `NC(=O)c1ncn([C@H]2O[C@@H](CO)[C@@H](O)[C@@H]2O)n1`, the Control in assay [1] turned out to be 119%; in assay [2] it was 132%; in assay [3], 100%.

Turning to `NC(=O)c1ncn([C@@H]2O[C@H](CO)[C@@H](O)[C@H]2O)n1` [RIBAVIRIN], the values for the Control in assay [1], in assay [2] and in assay [3] were 131%, 124% and 143%, respectively.

Regarding `NC(=O)c1ncn([C@@H]2C[C@@H](O)[C@H](CO)O2)n1`, the Control is 110% in assay [1], 119% in assay [2] and 108% in assay [3].
